Data taken from patent publication US7160914B2, “Compounds that exhibit specific molecular recognition of mixed nucleic acid sequences and bind in the DNA minor groove as a dimer” (The University of North Carolina at Chapel Hill, priority 1999, dated 2007).
Values belong to the molecule of their own block, whether it stands above or below them.

Tests used:
oligo2-1 hairpin duplex = tested on: oligo2-1 hairpin duplex
Protocol: (§1) To pursue the comparative quantitative analysis of these compounds with DNA in more detail by using surface plasmon resonance, 5′-biotin labeled analogs of oligo2-1 and 2-2 were immobilized on a BIAcore four-channel streptavidine-coated sensor chip as follows: Immobilization of DNA and surface plasmon resonance (SPR) binding studies: 5′-biotin labeled hairpins were purchased with HPLC purification (Midland Co). […] Steady state analysis was performed with multiple injections f different concentrations of each compound over the SA surface at a flow rate of 20 μl/min, at 25° C.
(§2) Oligo1 was immobilized as a control sequence and one flow cell was left as an unmodified reference. […] The free compound is fixed by the concentration in the flow solution.

oligo2-2 hairpin duplex = conditions: SPR, two site model
Protocol: as §1, §2

[1] = tested on: hairpin duplex oligo2 (93–104 base sequence region of the 265 mer pBS restriction fragment); assay: Thermal melting (Tm) of hairpin oligo2; type: binding; conditions: oligo2 on titration with compound; 0.01 M MES, 0.001M EDTA
Protocol: In order to investigate the complexes of these compounds in more detail with GC rich sequences, a hairpin duplex model containing the 93–104 base sequence region from the 265 mer pBS restriction fragment was synthesized and is illustrated as oligo2 in FIG. 1. Oligo1 (also shown in FIG. 1) with the AATT sequence that has been used in the analysis of a large number of minor-groove agents provides a reference.
Thermal melting experiments were conducted with a Cary 4 spectrophotometer interfaced to a microcomputer. A thermistor fixed into a reference cuvette was used to monitor the temperature. The oligomers were added to 1 mL of buffer (0.01 M MES and 0.001M EDTA) in 1 cm path length reduced volume quartz cells, and the concentration was determined by measuring the absorbance at 260 nm. Experiments were generally conducted at a concentration of 2×10^−6 M for hairpin oligo2, and 3×10^−6 M for hairpin oligo2-1. Tm experiments for the complexes were conducted as a function of ratio.

[2] = tested on: 265 bp EcoRI-PvuII restriction fragment from plasmid pBS; assay: Quantitative DNase I footprinting; type: binding; conditions: for footprint in the 90–100 base region (GC-rich): 265 mer pBS fragment, DNase I; for binding to sites containing GC base pairs, such as ATGA, ACGA, and ATGT: several restriction fragments
Protocol: In order to characterize the DNA recognition properties of a series of analogs of furamidine (shown in FIG. 1), quantitative DNAaseI footprinting studies were conducted using of a number of derivatives with several different DNA sequences. Plasmid DNA restriction fragments were prepared and DNaseI footprinting experiments were conducted as described in C. Bailly, et al., Biochemistry 35, 1150 (1996) and C. Bailly et al., Anti Cancer Drug Design (in press, 1999).
FIG. 2. illustrates the results of a quantitative DNase I footprinting titration experiment with the compound DB293 on a 265 bp DNA fragment as described herein. The EcoRI-PvuII restriction fragment from plasmid pBS was 3′-end labeled at the EcoRI site with [α-^32P]dATP in the presence of AMV reverse transcriptase. […] Drug concentrations are (lanes 1–11) 0, 0.3, 0.6, 0.9, 1.2, 1.5, 1.8, 2.1, 2.4, 2.7, 3.0 μM for DB 293 and (lanes 12–15) 0, 1, 2 and 5 μM for DB270. Tracks labeled ‘G’ represent dimethylsulphate-piperidine markers specific for guanines. The track labeled DNA contained no drug and no enzyme. Numbers at the right side of the gel refer to the numbering scheme of the fragment. The rectangles on the left side refer to the positions of (open box) an AT-rich and (filled box) a GC-rich binding site for DB293. FIG. 2B is a graphical illustration of footprinting plots for the binding of DB293 to (open circles) the AT site 5′-AATTAA and (filled squares) the GC-rich site 5′-ACCATG. The relative band intensity R corresponds to the ratio Ic/Io where Ic is the intensity of the band at the ligand concentration c and Io is the intensity of the same band in the absence of DB293. The differential cleavage plots shown in FIG. 2C compare the susceptibility of the DNA to cutting by DNase I in the presence of (filled circles) 5 μM DB270 or (open squares) 1.5 μM DB293. Deviation of points towards the lettered sequence (negative values) corresponds to a ligand-protected site and deviation away (positive values) represents enhanced cleavage. The vertical scale is in units of ln(fa)–l(fc), where fa is the fractional cleavage at any bond in the presence of the drug and fc is the fractional cleavage of the same bond in the control. […] The rectangles below the sequence show the positions of (open box) the AT binding site and (filled box) the GC-rich site.

hairpin duplex oligo2-1 = assay: Thermal melting (Tm) of hairpin oligo2-1; type: binding; conditions: 1:1 and 2:1 ratios, single transitions

Structure (SMILES): N=C(N)c1ccc(-c2ccc(-c3nc4ccc(C(=N)N)cc4[nH]3)o2)cc1 [DB293]
K2 relative to K1 (times larger) (oligo2-1 hairpin duplex; also relative to binding of DB270): over 25 times
macroscopic binding constant K1 (initial binding) (oligo2-1 hairpin duplex; oligo2-1, two site model): 2.8×10^6
macroscopic binding constant K2 (second site after the first site is filled) (oligo2-1 hairpin duplex; oligo2-1, two site model): 7.3×10^7
binding to oligo2-2 compared with oligo2-1 (oligo2-2 hairpin duplex): Very similar results
increase in Tm [1]: ≤ 30 °C
footprint in the 90–100 base region (GC-rich) [2]: very strong footprint
C50 (drug concentration required for half-maximal footprinting) at the ATGA site versus the neighboring ATTA site ([2]; ATGA site compared with ATTA site): significantly lower
binding to sites containing GC base pairs, such as ATGA, ACGA, and ATGT [2]: strongly binds

binding to oligo2-1 relative to binding to oligo1 (oligo2-1 hairpin duplex; SPR): at least a factor of ten weaker
footprint in the 90–100 base region (GC-rich) [2]: negligible footprints
Structure (SMILES): N=C(N)c1ccc2nc(-c3ccc(-c4nc5ccc(C(=N)N)cc5[nH]4)o3)[nH]c2c1 [DB270, reference compound]
melting temperatures of complexes with oligo2-1 (hairpin duplex oligo2-1): below the DB293 value
binding to sites containing GC base pairs, such as ATGA, ACGA, and ATGT [2]: not and do not bind strongly or footprint
